A short description of series [1]: Reserpine-induced fibromyalgia model, vonFrey test. It is filed as in vivo, rat. Conditions: 2C-B 10 and 20 mg/kg; 60-min post-injection. As for the experimental part:
In this Example, male Sprague Dawley rats are tested in a behavioral model of FMA based on the protocol from Nakagura et al. (2009) Pain 146:26. This model uses three daily doses of reserpine (1 mg/kg, SC) or 0.5% acetic acid vehicle to reduce pain thresholds (i.e., increase pain perception) in the Von Frey Test (vFT, procedure outlined below).
Von Frey Test (vFT) procedure: Increasing pain thresholds in this test are consistent with a reduction in pain perception. Prior to the start of dosing, rats are tested for their baseline mechanical pain threshold. For von Frey measurements, animals are placed into wire bottom cubicles with opaque Plexiglas walls, allowing access to the underside of their paws. Animals are habituated to this environment for at least 30 minutes before the start of the von Frey filament application. Static allodynia is measured using Semmes-Weinstein von Frey filaments (Stoelting, Wood Dale, IL). Mechanical allodynia is tested by touching the plantar surface of the animals' left and right hind paws with von Frey filaments which deliver a calibrated amount of force. Each von Frey filament is presented perpendicularly to the plantar surface for approximately 6 seconds of constant application in either ascending or descending strength in a modified up-and-down method (Chaplan et al. (1994) J Neurosci. Meth. 53:55). Stimulation is presented at intervals of several seconds, allowing for apparent resolution of any behavioral responses to previous stimuli. A positive response is noted if the paw is sharply withdrawn. Flinching immediately upon removal of the hair is also considered a positive response. Ambulation is considered an ambiguous response, and, in such cases, the stimulus is repeated.
VonFrey measurements: Animals were placed into wire bottom cubicles with opaque Plexiglas walls, allowing access to the underside of their paws. […] Static allodynia was measured using Semmes-Weinstein von Frey filaments (Stoelting, Wood Dale, IL). […] The average hindpaw thresholds were determined 60-min post-injection. […]

For series [2] the following is noted: previous reports (Hibicke 2020; Yang 2013; Tizabi 2012); cited from earlier work.
Series [3] addresses Human serotonin 5HT2B receptor (Homo sapiens, UniProt P41595). The experiment in a line: Competitive radioligand binding to 5HT2B receptor membranes. As for the experimental part: Human serotonin 5HT2B receptor membrane preparations were divided into aliquots. On the day of the assay, membranes were diluted at 1:200 in incubation buffer. […] To each well was added 150 μL membrane preparation, 50 μL test compound, non-specific compound, or buffer alone, as well as 50 μL radioligand. The plate was incubated at 35° C. for 90 minutes with gentle agitation. […] For each concentration of drug, non-specific binding was subtracted from total binding to give specific binding. […] Ki was subsequently calculated using the ChengPrusoff equation.

Series [4] can be described thus: Rat Forced Swim Test (FST). It is filed as in vivo. The text has this:
The Forced Swim Test (FST) is a classic, and the most used preclinical behavioral assay to screen compounds with antidepressant-like activity and has high predictive and face validity (Porsolt et al. (1977) Nature 266:730; Borsini and Meli (1988) Psychopharmacology 94:147). The premise of the FST is that when rats are placed into a cylinder filled with water, they will initially try to escape, but over time will become immobile. This increased immobility reflects behavioral despair, modeling a depressive-like state.
Forced Swim Test (EST): In the FST trial, rats were placed in a circular plexiglass container filled with water, with no means of escape. Water temperature was maintained at 22-25° C. and changed for every animal. After an acclimation period, rats were timed for inactivity (failure to struggle), activity, swim time and climbing time. Day 1 consisted of a 15 min acclimation trial, and Day 2 (24 h later) consisted of the 5 min test. A time sampling procedure was employed where animals were observed every 5 sec and scored for immobility, swimming, or climbing. Fluoxetine (10 mg/kg, IP, Sigma Aldrich) or 0.9% sterile saline vehicle (vehicle 3× group) were administered 23.5, 5, and 1 h before testing in the FST. […] The experimenter was blinded to treatment.
Forced Swim Test: In the FST trial, rats were placed in a circular plexiglass container filled with water, with no means of escape. Water temperature was maintained at 22-25° C. and changed for every animal. After an acclimation period, rats were timed for inactivity (failure to struggle), activity, swim time and climbing time. Day 1 consisted of a 15 min acclimation trial, and Day 2 (24 h later) consisted of the 5 min test. A time sampling procedure was employed where animals were observed every 5 sec and scored for immobility, swimming, or climbing. Fluoxetine (10 mg/kg, IP, Sigma Aldrich) or 0.9% sterile saline vehicle (vehicle 3× group) were administered 23.5, 5, and 1 h before testing in the FST. 2C-B (2.5, 10, or 20 mg/kg, IP, Cayman Chemical) or 0.9% saline vehicle (vehicle 1× group) were administered 30 min prior to FST testing. The experimenter was blinded to treatment.
Drug Treatment: Fluoxetine (10 mg/kg, IP, Sigma Aldrich) or 0.9% sterile saline vehicle were administered 23.5, 5, and 1 h before testing in the FST. […] Control animals received fluoxetine alone, methylone alone, or saline vehicle.
Forced Swim Test: In the FST trial, rats were placed in a circular plexiglass container filled with water, with no means of escape. Water temperature was maintained at 22-25° C. and changed for every animal. After an acclimation period, rats were timed for inactivity (failure to struggle), activity, swim time and climbing time. The experimenter and scorer were blind to treatment group. Day 1 consisted of a 15 min acclimation trial, and Day 2 (24 h later) consisted of the 5 min test. A time sampling procedure was employed where animals were observed every 5 sec and scored for immobility, swimming, or climbing.
The FST was performed and scored by an experimenter blind to treatment group according to standard protocols and based on a “modified FST” procedure (Slattery and Cryan (2012) Nat Protoc, 7:1009). Briefly, rats were placed in a circular plexiglass container (29.2 cm diameter, 49.5 cm height) filled with water to a depth of 30 cm so rats could not support themselves by touching the bottom of the tank. Water was maintained at 22-25° C. and was changed for every animal. Day 1 (Training) consisted of a 15 min acclimation trial, and Day 2 (Testing, 24 h later) consisted of the 5 min test. A time sampling procedure was employed where animals were observed every 5 seconds for the duration of the test session (60 counts or 5 minutes) and scored for immobility (defined as the failure to struggle), swimming (defined as a circular movement around the tank), or climbing (defined as an upwards escape behavior). […]

Series [5] can be described thus: Cisplatin chemotherapy-induced peripheral neuropathy (CIPN) model, VonFrey test. It is filed as in vivo, mouse. As for the experimental part: Methods: Male C57Bl/6 mice aged 12-16 weeks were used. Cisplatin (2.5 mg/kg) or vehicle was administered on days 1-5 and 11-15.
Vehicle, sub-chronic 2C-B (5 mg/kg once daily days 17-23) or acute 2C-B (20 mg/kg once on day 17) was then administered IP (N=16-18/group). VonFrey testing took place on day 17 (30 min post-dose) and days 21 and 24 (pre-dose) to monitor the effects of 2C-B in cisplatin treated animals, compared with animals receiving cisplatin+vehicle or vehicle+vehicle.
For von Frey measurements, animals were placed into wire bottom cubicles with opaque Plexiglas walls, allowing access to the underside of their paws. Animals were habituated to this environment for at least 30 minutes before the start of the von Frey filament application. Static allodynia was measured using Semmes-Weinstein von Frey filaments (Stoelting, Wood Dale, IL). Mechanical allodynia was tested by touching the plantar surface of the animals' right and left hind paws with von Frey filaments which deliver a calibrated amount of force (0.07, 0.16, 0.4, 0.6. 1.0, 2.0, 4.0, 6.0 g). Each von Frey filament was presented perpendicularly to the plantar surface for approximately 6 seconds of constant application in either ascending or descending strength in a modified up-and-down method (Chaplan et al. (1994) J Neurosci. Meth. 53:55). […]

A short description of another series: Open field test (OFT). The class given is in vivo, rat. Conditions: 0.5-30 mg/kg IP, 30 minutes before 30-min test. The procedure:
Method: Consecutive beam breaks and/or video-tracking of time spent in the center versus periphery of the open field are measured. Also measured are parameters such as distance traveled and ambulatory activity (horizontal and vertical) for the duration of the test session.
The open field test (OFT) capitalizes on a rodent's innate fear of open spaces to assess anxiety-like behavior. More time spent in the center of an open field reflects an anxiolytic (anti-anxiety) effect.
Locomotor activity was also measured in the OFT.
To investigate whether MBDB has an anti-anxiety (anxiolytic) effect, rats were dosed with MBDB (0.5-30 mg/kg, IP) or vehicle (saline) and 30-minutes later were tested in the open field for 30 minutes. This anxiety test capitalizes on a rodents' innate fear of wide-open spaces and propensity to hug the walls when placed into the open field. Therefore, a drug that increases the time spent in the center of the open field has anxiolytic activity and predicts utility for treating anxiety in humans.

The test system of another series is 5-HT/5-HIAA uptake sites. Conditions: (±)-MBDB·HCl 25 mg/kg IP every 12 hours for 4 days; cited from earlier work.
Series [6] is described as follows: Mouse fear extinction paradigm (PTSD model). The class given is in vivo. Conditions: 5 mg/kg IP, day 2. The text has this:
(FIG. 9A) Schematic of experimental design. A single CS-US (tone-shock) pairing on day 1 was followed by 6 CS presentations in a novel context (context B). […] On day 3, the time spent freezing to the CS was quantified. […] (FIG. 9C) No locomotor changes were observed on day 3 (t(26)=1.073, p>0.05). Data are mcan+/−SEM.
FIGS. 10A-10B: MBDB improves fear extinction in a PTSD mouse model. A single CS-US (tone-shock) pairing on day 1 was followed by 6 conditioned stimulus (CS) presentations in a novel context (context B). MBDB or saline vehicle was injected 30 min prior to extinction training on day 2. The time spent freezing to the CS was quantified on day 2. […] Data are mean+/−SEM. N=10 for MBDB group (5 mg/kg, IP) and N=16 for saline control group. **p<0.01 vs. vehicle control group.
Effective PTSD treatments facilitate the disassociation between a traumatic memory and the patient's fear response, making cues for the traumatic memory evoke less of a fear response. This is modeled in the mouse fear extinction paradigm (see FIG. 9A) which takes place over 3 days. […] On day 3 (extinction recall), the mice are “asked” if that tone (CS) still elicits a fearful response, as measured by the time spent freezing when the tone is presented. […]

Chain of Human serotonin 5HT2B receptor (P41595 whole entry): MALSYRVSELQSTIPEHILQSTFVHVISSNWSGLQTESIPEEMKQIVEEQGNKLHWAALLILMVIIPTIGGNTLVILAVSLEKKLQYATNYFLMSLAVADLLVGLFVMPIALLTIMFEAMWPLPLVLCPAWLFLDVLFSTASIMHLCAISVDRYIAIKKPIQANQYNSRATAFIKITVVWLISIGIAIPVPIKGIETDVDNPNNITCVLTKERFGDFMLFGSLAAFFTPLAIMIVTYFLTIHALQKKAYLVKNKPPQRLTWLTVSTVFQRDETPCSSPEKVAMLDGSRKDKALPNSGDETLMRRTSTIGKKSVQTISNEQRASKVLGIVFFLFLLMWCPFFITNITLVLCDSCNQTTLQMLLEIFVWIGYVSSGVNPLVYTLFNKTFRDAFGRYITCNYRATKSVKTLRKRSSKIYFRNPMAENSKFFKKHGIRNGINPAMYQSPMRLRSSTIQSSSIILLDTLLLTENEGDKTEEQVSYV

For `CNCC[C@H](Oc1cccc2ccccc12)c1cccs1` [Duloxetine, reference compound], the “Animals with maximal (complete) reversal of reserpine-induced pain sensitivity” value in series [1] worked out at 44%.

With `CCN(CC)C(=O)[C@@H]1C=C2c3cccc4[nH]cc(c34)C[C@H]2N(C)C1` [LSD, lysergic acid-N,N-diethylamide], in series [2], the “Reduction in immobility in the FST” value is given as 38%.

Consider `CC(N)Cc1ccc2c(c1)OCO2` (stereo not shown) [MDA, reference compound], for which, in series [3], the “Times greater affinity for the 5HT2B receptor compared with methylone” value stood at 37 times.

For the compound `CNCCC(Oc1ccc(C(F)(F)F)cc1)c1ccccc1` (stereo not shown) [fluoxetine, reference compound], in series [4] (doses as worded), the Swimming behavior entry is given as “significantly increased swimming behavior”.

For `COc1cc(CCN)c(OC)cc1Br` [2C-B, 4-Bromo-2,5-dimethoxyphenethylamine], in series [4] (doses as worded), the Climbing behavior entry was “Climbing was significantly decreased only in the high-dose group” and the Swimming behavior entry is recorded as “significant increase in swimming”. In addition, the “Effect of repeated doses” value in series [5] (5 mg/kg once daily days 17-23) was “sustained beneficial effect”. Also, the “Pain thresholds in cisplatin-treated animals” value in series [5] (single dose 5 or 20 mg/kg IP, day 17) is recorded as “Pain thresholds were significantly increased within 30 min of a single dose”. Moreover, the “Animals with maximal (complete) reversal of reserpine-induced pain sensitivity” value in series [1] is on record as 100%.

In the case of `CCC(Cc1ccc2c(c1)OCO2)NC` (racemic) [MBDB, N-methyl-1-(1,3-benzodioxol-5-yl)-2-aminobutane], the “Increase in time spent in the center vs. control” value in the series “Open field test (OFT)” is given as ~40%. Moreover, in series [4] (5-30 mg/kg IP, 30 min before test), the Immobility entry was “significantly reduced immobility”. The “Serotonergic terminals in cortex and hippocampus destroyed” value with 5-HT/5-HIAA uptake sites is given as 55-60%. In series [6], the Extinction acquisition entry is on record as “improved extinction acquisition on the first trial of extinction training on day 2”.

The values above are taken from patent US12295937B2, “Psychoactive medicines and their use for treating psychiatric and neurological conditions and disorders” (Transcend Therapeutics, Inc., priority 2021, dated 2025).
